Reference: patent US20030236223A1, “Metastasis modulating activity of highly sulfated oligosaccharides” (Greenville Hospital System, priority 2002, published 2003)

Tests used:
[1] = tested on: murine B16 melanoma cells; test: B16 murine melanoma cell proliferation (Promega Cell Titer 96 AQueous assay); type: cell-based; settings: 48 hours incubation, 0-90 micrograms/ml, FIG. 1
Protocol: 5000 cells/well of murine B16 melanoma cells were plated in a 96-well plate and incubated for 48 hours with varying concentrations of cyclodextrin tetradecasulfate (0-90 micrograms/ml). Non-radioactive assay solution was prepared according to manufacturer's protocol (Promega Cell Titer 96 AQueous Assay Reagents). Cells were read using a Biorad benchmark microplate reader 2 hours after the assay solution was added to the well.

lung metastasis = test: Lung metastasis in tumorigenic mice treated via drinking water; type: in vivo; settings: C57B1-6 mice, 10 mg/ml in drinking water for two weeks, FIG. 2
Protocol: C57B1-6 mice (n=2) were treated with 10 mg/ml β-cyclodextrin tetradecasulfate in their drinking water for two weeks. The control animal (n=2) was given cyclodextrin-free drinking water.

## β-cyclodextrin tetradecasulfate
[1]
  cell proliferation: cell proliferation decreases
Lung metastasis
  lung metastasis compared to the control animal: ⅓ fewer lung metastasis
